Data: PubChem BioAssay (NCI)
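Compound exposure: 48 hours, 5 concentrations, 96-well plates. GI50 = concentration required for 50% inhibition of growth. The concentration for full growth arrest is given as TGI.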

What was measured:
Test in all cases: inhibition of tumour cell growth, NCI panel, 48 h
COLO 205 colon = test system: COLO 205 colon
U251 CNS = test system: U251 CNS
MCF7 breast = test system: MCF7 breast
NCI/ADR-RES ovarian = test system: NCI/ADR-RES ovarian
UO-31 renal = test system: UO-31 renal
MALME-3M melanoma = test system: MALME-3M melanoma
ACHN renal = test system: ACHN renal
SN12C renal = test system: SN12C renal
SK-OV-3 ovarian = test system: SK-OV-3 ovarian
CCRF-CEM leukemia = test system: CCRF-CEM leukemia
SF-268 CNS = test system: SF-268 CNS
A498 renal = test system: A498 renal
SR leukemia = test system: SR leukemia
LOX IMVI melanoma = test system: LOX IMVI melanoma
NCI-H226 lung = test system: NCI-H226 lung

Compound | TGI (COLO 205 colon) | TGI (U251 CNS) | TGI (MCF7 breast) | TGI (NCI/ADR-RES ovarian) | TGI (UO-31 renal) | TGI (MALME-3M melanoma) | TGI (ACHN renal) | TGI (SN12C renal) | TGI (SK-OV-3 ovarian) | TGI (CCRF-CEM leukemia) | TGI (SF-268 CNS) | TGI (A498 renal) | TGI (SR leukemia) | TGI (LOX IMVI melanoma) | TGI (NCI-H226 lung) | GI50 (U251 CNS) | GI50 (MCF7 breast) | GI50 (NCI/ADR-RES ovarian) | GI50 (SF-268 CNS)
Cc1cccc(N(C(=O)Nc2ccc(Cl)c(Cl)c2)C2=NCC(C)S2)c1 (stereo unspecified) | > 100 µM | > 100 µM | 58.8 µM | > 100 µM | > 100 µM | > 100 µM | > 100 µM | > 100 µM | > 100 µM | > 100 µM | > 100 µM | > 100 µM | > 100 µM | 86.5 µM |  |  |  |  | 
CCSc1n/c(=C\c2ccco2)c2nncn12 | > 100 µM | > 100 µM | > 100 µM | > 100 µM | > 100 µM | > 100 µM | > 100 µM | > 100 µM | > 100 µM | > 100 µM | > 100 µM |  | > 100 µM | > 100 µM | > 100 µM |  |  |  | 
CCN(CC)/C(Sc1ccccc1)=C(\C(Cl)=C(Cl)Cl)[N+](=O)[O-] | 31.5 µM |  | 30.2 µM | > 100 µM | 28.9 µM | 39.9 µM | 31.7 µM | 37.8 µM | 73.1 µM | 20.9 µM | 58.3 µM | 36.3 µM |  | 25.8 µM | 42.8 µM |  |  |  | 
CC(C)OCC1CC(CC(=O)Nc2nncs2)C(=O)O1 (stereo unspecified) | > 100 µM | > 100 µM | > 100 µM | > 100 µM | > 100 µM |  | > 100 µM | > 100 µM | > 100 µM | > 100 µM | > 100 µM |  | > 100 µM | > 100 µM | > 100 µM |  |  |  | 
O=C1NC(=S)N/C1=C\c1ccc(Br)s1 | > 100 µM | > 100 µM | > 100 µM |  | > 100 µM | > 100 µM | > 100 µM | > 100 µM | > 100 µM | > 100 µM | > 100 µM | > 100 µM | > 100 µM | > 100 µM | > 100 µM |  |  |  | 
CCCCCCCCCCCCCCCCOCC(CC(F)(F)P(=O)(OCC)OCC)OC(C)=O (stereo unspecified) | 32.5 µM | 13.7 µM | 33.5 µM | 32.4 µM | 29.5 µM | 25.7 µM | 27.3 µM | 44.5 µM | 35 µM |  | 27.5 µM | 25.8 µM |  |  | 28.7 µM |  |  |  | 
CC(C)=CCC/C(=C/CC/C(=C\CCc1ccoc1)C(=O)O)C(=O)O | > 100 µM | > 100 µM | > 100 µM | > 100 µM | > 100 µM | > 100 µM | > 100 µM | > 100 µM | > 100 µM | > 100 µM | > 100 µM | > 100 µM |  | > 100 µM | > 100 µM |  |  |  | 
COC(=O)CNS(=O)(=O)c1ccc(-c2c3nc(c(-c4ccc(S(=O)(=O)NCC(=O)OC)cc4)c4ccc([nH]4)c(-c4ccc(S(=O)(=O)NCC(=O)OC)cc4)c4nc(c(-c5ccc(S(=O)(=O)NCC(=O)OC)cc5)c5ccc2[nH]5)C=C4)C=C3)cc1 | > 100 µM | > 100 µM | > 100 µM | > 100 µM | > 100 µM | > 100 µM | > 100 µM | > 100 µM | > 100 µM | > 100 µM | > 100 µM | > 100 µM | > 100 µM | > 100 µM |  |  |  |  | 
CNc1ccc2c(c1)[C@@]1(C)c3ccccc3[C@@H](C2)N1C |  | 47.5 µM | > 100 µM | 64.2 µM | > 100 µM | 82.1 µM | > 100 µM | 33 µM | > 100 µM | 52.7 µM | > 100 µM | 74 µM | 54.7 µM | 36.6 µM |  |  |  |  | 
N#Cc1c(-c2ccc([N+](=O)[O-])cc2)c(C#N)c(=O)n(NS(=O)(=O)c2ccccc2)c1-c1ccccc1 | > 100 µM | > 100 µM | > 100 µM | > 100 µM |  | > 100 µM | > 100 µM | > 100 µM | > 100 µM | > 100 µM | > 100 µM | > 100 µM |  | > 100 µM | > 100 µM |  |  |  | 
CCOP(=O)(OCC)C(C)(CC)N/C(=N/C(NC(C)=O)(C(F)(F)F)C(F)(F)F)NC1=NC(C(F)(F)F)(C(F)(F)F)N=C(C(F)(F)F)O1 (stereo unspecified) | 29.8 µM | > 100 µM | 68.8 µM | 47.4 µM |  | 58.2 µM | > 100 µM | > 100 µM | > 100 µM | > 100 µM | > 100 µM | > 100 µM |  | > 100 µM | 70.1 µM |  |  |  | 
CCOP(=O)(OCC)C(Nc1ccc(Br)cc1)c1cccc([N+](=O)[O-])c1 (stereo unspecified) | 26 µM | 36.1 µM |  | 44.8 µM | 22.7 µM | 37.9 µM | 47.1 µM | 37.8 µM | 41.5 µM | 49.1 µM | 43.6 µM | 31.1 µM | 56.2 µM | 23.3 µM | 38.3 µM |  |  |  | 
COc1cccc([C@H]2C/C(=N\NC(=O)C(=O)N[C@@H](C)c3ccccc3)c3ccccc3N2)c1 | 13.1 µM | > 100 µM | > 100 µM | 0.0535 µM | > 100 µM |  | > 100 µM | 0.0898 µM | > 100 µM | 3.09 µM | > 100 µM | > 100 µM |  | > 100 µM | 3.03 µM | 0.0325 µM | 0.0306 µM | < 0.01 µM | 0.0912 µM
CCOC(=O)Cn1c(=O)c2nc(SC)sc2n(CC)c1=S | > 100 µM | > 100 µM | > 100 µM | > 100 µM | 28.8 µM | > 100 µM | > 100 µM | > 100 µM | > 100 µM | > 100 µM | > 100 µM |  | > 100 µM | > 100 µM | > 100 µM |  |  |  | 
Cc1ccc(/C=C/c2nnc(N/N=C/c3ccc4c(c3)OCO4)[nH]c2=O)cc1 | > 100 µM | 33.6 µM | 51.2 µM | 37.5 µM | > 100 µM | > 100 µM | 65.6 µM | 38.1 µM | 93.2 µM | 45.4 µM | 33.9 µM |  | 40.9 µM | 37.7 µM | 72.5 µM |  |  |  | 
